From ChEMBL document CHEMBL1201862, “PubChem BioAssay data set” (2004)
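Five concentrations, 48 hours, 96-well plates. The concentration for 50% growth inhibition is given as GI50.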 Calls of active or inactive are those of the source. Rule as the data show it: active = GI50 up to about 1.1 µM and inactive = higher.

Legend:
Test in all cases: NCI-60 cell line screen, 48 h
OVCAR-8 = tested on: OVCAR-8
TK-10 = tested on: TK-10
A549 = tested on: A549
NCI-H522 = tested on: NCI-H522
SK-OV-3 = tested on: SK-OV-3
IGROV-1 = tested on: IGROV-1
SW-620 = tested on: SW-620
KM12 = tested on: KM12
SNB-78 = tested on: SNB-78
KM-20L2 = tested on: KM-20L2
SNB-75 = tested on: SNB-75
A498 = tested on: A498
OVCAR-4 = tested on: OVCAR-4
NCI-H226 = tested on: NCI-H226
Malme-3M = tested on: Malme-3M
RXF 393 = tested on: RXF 393
CAKI-1 = tested on: CAKI-1
HCT-116 = tested on: HCT-116
MOLT-4 = tested on: MOLT-4
M14 = tested on: M14
NCI-H460 = tested on: NCI-H460
COLO 205 = tested on: COLO 205
UACC-257 = tested on: UACC-257
RPMI-8226 = tested on: RPMI-8226
UO-31 = tested on: UO-31
SF-539 = tested on: SF-539
DMS-273 = tested on: DMS-273
K562 = tested on: K562
HL-60 = tested on: HL-60
SK-MEL-5 = tested on: SK-MEL-5
SK-MEL-2 = tested on: SK-MEL-2
SF-268 = tested on: SF-268
HOP-62 = tested on: HOP-62
LXFL 529 = tested on: LXFL 529
UACC-62 = tested on: UACC-62
HCT-15 = tested on: HCT-15
DMS-114 = tested on: DMS-114
SK-MEL-28 = tested on: SK-MEL-28
SR = tested on: SR
SN12C = tested on: SN12C
OVCAR-3 = tested on: OVCAR-3
ACHN = tested on: ACHN
SNB-19 = tested on: SNB-19
CCRF-CEM = tested on: CCRF-CEM
DLD-1 = tested on: DLD-1
HCC 2998 = tested on: HCC 2998
U-251 = tested on: U-251
M19-MEL = tested on: M19-MEL
HOP-18 = tested on: HOP-18
786-0 = tested on: 786-0
EKVX = tested on: EKVX
HT-29 = tested on: HT-29
SF-295 = tested on: SF-295
NCI-H23 = tested on: NCI-H23
LOX IMVI = tested on: LOX IMVI
OVCAR-5 = tested on: OVCAR-5
HOP-92 = tested on: HOP-92
XF498 = tested on: XF498

SMILES: CC(=O)O[C@@H]1C2C(=O)OC(=O)C2C2CCC[C@]23O[C@H]13 (some centres undefined)
- GI50 (OVCAR-8): > 100 µM (inactive)
- GI50 (TK-10): > 100 µM (inactive)
- GI50 (A549): > 100 µM (inactive)
- GI50 (NCI-H522): > 100 µM (inactive)
- GI50 (SK-OV-3): > 100 µM (inactive)
- GI50 (IGROV-1): > 100 µM (inactive)
- GI50 (SW-620): > 100 µM (inactive)
- GI50 (KM12): > 100 µM (inactive)
- GI50 (SNB-78): > 100 µM (inactive)
- GI50 (KM-20L2): > 100 µM (inactive)
- GI50 (SNB-75): > 100 µM (inactive)
- GI50 (A498): > 100 µM (inactive)
- GI50 (OVCAR-4): > 100 µM (inactive)
- GI50 (NCI-H226): > 100 µM (inactive)
- GI50 (Malme-3M): > 100 µM (inactive)
- GI50 (RXF 393): > 100 µM (inactive)
- GI50 (CAKI-1): > 100 µM (inactive)
- GI50 (HCT-116): > 100 µM (inactive)
- GI50 (MOLT-4): > 100 µM (inactive)
- GI50 (M14): > 100 µM (inactive)
- GI50 (NCI-H460): > 100 µM (inactive)
- GI50 (COLO 205): > 100 µM (inactive)
- GI50 (UACC-257): > 100 µM (inactive)
- GI50 (RPMI-8226): > 100 µM (inactive)
- GI50 (UO-31): > 100 µM (inactive)
- GI50 (SF-539): > 100 µM (inactive)
- GI50 (DMS-273): > 100 µM (inactive)
- GI50 (K562): > 100 µM (inactive)
- GI50 (HL-60): > 100 µM (inactive)
- GI50 (SK-MEL-5): > 100 µM (inactive)
- GI50 (SK-MEL-2): > 100 µM (inactive)
- GI50 (SF-268): > 100 µM (inactive)
- GI50 (HOP-62): > 100 µM (inactive)
- GI50 (LXFL 529): > 100 µM (inactive)
- GI50 (UACC-62): > 100 µM (inactive)
- GI50 (HCT-15): > 100 µM
- GI50 (DMS-114): > 100 µM (inactive)
- GI50 (SK-MEL-28): > 100 µM (inactive)
- GI50 (SR): > 100 µM (inactive)
- GI50 (SN12C): > 100 µM (inactive)
- GI50 (OVCAR-3): > 100 µM (inactive)
- GI50 (ACHN): > 100 µM (inactive)
- GI50 (SNB-19): > 100 µM (inactive)
- GI50 (CCRF-CEM): > 100 µM (inactive)
- GI50 (DLD-1): > 100 µM (inactive)
- GI50 (HCC 2998): > 100 µM (inactive)
- GI50 (U-251): > 100 µM (inactive)
- GI50 (M19-MEL): > 100 µM (inactive)
- GI50 (HOP-18): > 100 µM (inactive)
- GI50 (786-0): > 100 µM (inactive)

SMILES: N#Cc1ccc(Sc2nc3ccccc3[nH]2)cc1
- GI50 (OVCAR-8): > 100 µM (inactive)
- GI50 (TK-10): > 100 µM (inactive)
- GI50 (EKVX): > 100 µM (inactive)
- GI50 (A549): 78.2 µM (inactive)
- GI50 (NCI-H522): > 100 µM (inactive)
- GI50 (SK-OV-3): > 100 µM (inactive)
- GI50 (IGROV-1): 86.7 µM (inactive)
- GI50 (SW-620): > 100 µM (inactive)
- GI50 (KM12): > 100 µM (inactive)
- GI50 (HT-29): > 100 µM (inactive)
- GI50 (SNB-78): > 100 µM (inactive)
- GI50 (OVCAR-4): > 100 µM (inactive)
- GI50 (NCI-H226): 36.6 µM (inactive)
- GI50 (Malme-3M): > 100 µM (inactive)
- GI50 (RXF 393): > 100 µM (inactive)
- GI50 (CAKI-1): > 100 µM (inactive)
- GI50 (MOLT-4): 94 µM (inactive)
- GI50 (SF-295): > 100 µM (inactive)
- GI50 (NCI-H460): 79.6 µM (inactive)
- GI50 (COLO 205): > 100 µM (inactive)
- GI50 (NCI-H23): > 100 µM (inactive)
- GI50 (UACC-257): > 100 µM (inactive)
- GI50 (UO-31): > 100 µM (inactive)
- GI50 (LOX IMVI): > 100 µM (inactive)
- GI50 (SF-539): > 100 µM (inactive)
- GI50 (DMS-273): > 100 µM (inactive)
- GI50 (K562): > 100 µM (inactive)
- GI50 (HL-60): 84.3 µM (inactive)
- GI50 (SK-MEL-5): 34.4 µM (inactive)
- GI50 (SK-MEL-2): > 100 µM (inactive)
- GI50 (SF-268): > 100 µM (inactive)
- GI50 (HOP-62): > 100 µM (inactive)
- GI50 (LXFL 529): 46.7 µM (inactive)
- GI50 (UACC-62): 41.7 µM (inactive)
- GI50 (DMS-114): 65 µM (inactive)
- GI50 (SK-MEL-28): > 100 µM (inactive)
- GI50 (SR): > 100 µM (inactive)
- GI50 (SN12C): > 100 µM (inactive)
- GI50 (ACHN): > 100 µM (inactive)
- GI50 (OVCAR-5): 42.8 µM (inactive)
- GI50 (HOP-92): > 100 µM (inactive)
- GI50 (SNB-19): > 100 µM (inactive)
- GI50 (CCRF-CEM): > 100 µM (inactive)
- GI50 (DLD-1): > 100 µM (inactive)
- GI50 (U-251): > 100 µM (inactive)
- GI50 (M19-MEL): 86.1 µM (inactive)
- GI50 (HOP-18): > 100 µM (inactive)
- GI50 (786-0): > 100 µM (inactive)

SMILES: CC(=O)OCC(OC(C)=O)C(OC(C)=O)C(OC(C)=O)C(=O)CNn1c(-c2ccc(C)cc2)nc2ccccc2c1=O (centres undefined)
- GI50 (OVCAR-8): > 100 µM (inactive)
- GI50 (EKVX): > 100 µM (inactive)
- GI50 (A549): > 100 µM (inactive)
- GI50 (NCI-H522): 57.9 µM (inactive)
- GI50 (SK-OV-3): > 100 µM (inactive)
- GI50 (SW-620): > 100 µM (inactive)
- GI50 (KM12): > 100 µM (inactive)
- GI50 (HT-29): > 100 µM (inactive)
- GI50 (SNB-78): > 100 µM (inactive)
- GI50 (KM-20L2): > 100 µM (inactive)
- GI50 (SNB-75): 53.1 µM (inactive)
- GI50 (A498): > 100 µM (inactive)
- GI50 (OVCAR-4): > 100 µM (inactive)
- GI50 (Malme-3M): > 100 µM (inactive)
- GI50 (RXF 393): > 100 µM (inactive)
- GI50 (XF498): 16.5 µM (inactive)
- GI50 (CAKI-1): 90.2 µM (inactive)
- GI50 (HCT-116): > 100 µM (inactive)
- GI50 (MOLT-4): 82.8 µM (inactive)
- GI50 (M14): > 100 µM (inactive)
- GI50 (SF-295): > 100 µM (inactive)
- GI50 (NCI-H460): > 100 µM (inactive)
- GI50 (COLO 205): > 100 µM (inactive)
- GI50 (NCI-H23): > 100 µM (inactive)
- GI50 (UACC-257): > 100 µM (inactive)
- GI50 (RPMI-8226): 39.4 µM (inactive)
- GI50 (UO-31): > 100 µM (inactive)
- GI50 (LOX IMVI): > 100 µM (inactive)
- GI50 (SF-539): > 100 µM (inactive)
- GI50 (DMS-273): > 100 µM (inactive)
- GI50 (K562): > 100 µM (inactive)
- GI50 (HL-60): 50 µM (inactive)
- GI50 (SK-MEL-5): > 100 µM (inactive)
- GI50 (SK-MEL-2): > 100 µM (inactive)
- GI50 (SF-268): > 100 µM (inactive)
- GI50 (HOP-62): > 100 µM (inactive)
- GI50 (LXFL 529): > 100 µM (inactive)
- GI50 (UACC-62): 60.5 µM (inactive)
- GI50 (HCT-15): > 100 µM
- GI50 (DMS-114): 54.1 µM (inactive)
- GI50 (SK-MEL-28): > 100 µM (inactive)
- GI50 (SR): 41.2 µM (inactive)
- GI50 (SN12C): 76 µM (inactive)
- GI50 (OVCAR-3): > 100 µM (inactive)
- GI50 (ACHN): > 100 µM (inactive)
- GI50 (OVCAR-5): > 100 µM (inactive)
- GI50 (SNB-19): > 100 µM (inactive)
- GI50 (CCRF-CEM): > 100 µM (inactive)
- GI50 (U-251): > 100 µM (inactive)
- GI50 (M19-MEL): > 100 µM (inactive)
- GI50 (786-0): > 100 µM (inactive)
